Like-named read-outs stand apart in the source and are kept apart here.
Assays:
normal human melanocytes = assay: Cytotoxicity on normal human melanocytes, PNPP assay; assay type: cell-based; conditions: 24 hours, relative to untreated wells
Protocol: The cytotoxicity of the active agents is studied on normal human melanocytes in 24-well plates, via assay with PNPP (P-nitrophenyl phosphate), this substance being converted into p-nitrophenol via the intracellular acid phosphatases of viable cells. The absorbance of p-nitrophenol at 405 nm is directly proportional to the number of viable cells.
The active agents are tested at 2 different concentrations (10^−4 M and 10^−5 M) and added to the culture medium and incubated at 37° C. for 24 hours. The assay with PNPP is performed on the cell lawn and the results are expressed as a percentage of viability relative to the negative control (untreated wells).

Human tyrosinase [1] = target: T1, Human tyrosinase (Homo sapiens, UniProt P14679); assay: In vitro test of inhibition of human tyrosinase from melanocyte extracts (L-dopa/MBTH, OD 490 nm); assay type: biochemical; conditions: melanocyte extract; for inhibition at 100 µM: 10^−4M, read-out: Inhibition of human tyrosinase, percentage of inhibition, Mean 10^−4M; for inhibition at 10 µM: 10^−5M, read-out: Inhibition of human tyrosinase, percentage of inhibition, Mean 10^−5M
T1 construct: endogenous in cells; host or cells: normal human melanocytes (abdominal surgery; several donors of fair, brown and black phototypes)
T1 sequence (P14679 19-529): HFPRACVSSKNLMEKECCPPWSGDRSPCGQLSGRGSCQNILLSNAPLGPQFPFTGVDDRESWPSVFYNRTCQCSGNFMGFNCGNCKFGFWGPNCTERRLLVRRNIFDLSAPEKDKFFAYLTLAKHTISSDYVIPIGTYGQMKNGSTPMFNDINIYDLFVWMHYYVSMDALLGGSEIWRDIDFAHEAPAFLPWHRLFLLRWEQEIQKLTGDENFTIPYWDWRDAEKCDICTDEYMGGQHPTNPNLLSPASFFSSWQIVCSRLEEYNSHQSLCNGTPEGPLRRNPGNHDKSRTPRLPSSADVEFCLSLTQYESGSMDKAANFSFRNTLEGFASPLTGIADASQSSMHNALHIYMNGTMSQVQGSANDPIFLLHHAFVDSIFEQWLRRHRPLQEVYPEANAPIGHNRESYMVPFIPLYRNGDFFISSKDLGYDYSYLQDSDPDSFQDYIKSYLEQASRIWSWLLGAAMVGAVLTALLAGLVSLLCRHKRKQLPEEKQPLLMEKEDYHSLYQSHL
Protocol: Human tyrosinase, obtained from melanocyte extracts obtained from healthy donors, catalyses the formation of L-dopaquinone from L-dopa. Now, the L-dopaquinone may be quantified by visible spectrophotometry at 490 nm by means of a chromogen: 3-methyl-2-benzothiazolinone hydrazone (MBTH).
The melanocyte extract is obtained after lysis of cell membranes of the normal human melanocytes, performed via a thermal shock. The supernatant is recovered and then incubated with MBTH (Sigma) and L-dopa (Sigma). […]

Human tyrosinase [2] = target: T1, Human tyrosinase; assay: Inhibition of human tyrosinase after 24 h application to normal human melanocytes in monolayer; assay type: cell-based; conditions: for inhibition at 1000 µM: 10^−3 M
Protocol: Normal human melanocytes (obtained from abdominal surgery) are seeded in 24-well plates at a rate of 80 000 cells per well. They are cultured to confluence and the active agents are applied for 24 hours to the culture media. After 24 hours, the media are removed and the melanocytes are detached via mechanical action. An extraction is performed via a thermal shock and the supernatants are then recovered and incubated with MBTH (Sigma) and L-dopa (Sigma). The OD at 490 nm is measured after 30 minutes, and the tyrosinase inhibition is calculated by relating the OD at 490 nm to the protein content (measured in each culture well) of the test relative to the ratio: OD 490 nm/protein concentration of the negative control (untreated control).
The compounds derived from the examples mentioned above were tested on melanocytes derived from various donors but of fair phototype, according to the protocol described in Example 29. The donors tested are as follows: • donor S (donor tested in Example 12): • donor 1: • donor 2: • donor 3
The compound derived from Example 1 is tested on cultures of melanocytes obtained from 2 donors of brown phototype and from one donor of black phototype. The protocol applied is that described in Example 29. […]

[3] = Antiradical activity, acellular DPPH model; conditions: DPPH 30 minutes, absorbance 520 nm
Protocol: The antiradical activity of the derivatives derived from the syntheses described above was evaluated in an in vitro acellular model using DPPH.
1,1-Diphenyl 2-picryihydrazyl, on account of its paramagnetic structure, can accept an electron or a hydrogen radical to become a stable diamagnetic molecule. This free radical, which is purple coloured in ethanol, has a strong absorption band at 520 nm.
The addition of a compound that provides electrons results in a decolorization of the 1,1-diphenyl 2-picrylhydrazyl that is proportional to the number of electrons taken up by the radical, which may be monitored by measuring the absorbance at 520 nm.
DPPH is incubated for 30 minutes in the presence of the derivatives described above, tested at a concentration of 10^−5M, or alone for the control. At the end of the incubation, the antiradical activity of the above derivatives is evaluated by measuring the absorbance of the solution at 520 nm.
The antiradical activity of each test product is calculated according to the formula, as a percentage: 100−((OD520 in the presence of the test compound/OD520 in the absence of compound)×100)

fungal tyrosinase = assay: In vitro test of inhibition of isolated fungal tyrosinase (L-dopa, dopachrome OD 490 nm); assay type: biochemical; conditions: 490 nm
Source text: Tyrosinase catalyses the formation of L-dopaquinone and then of dopachrome from L-dopa. Now, dopachrome is a coloured compound that may be quantified by visible spectrophotometry at 490 nm. The use of an active agent capable of modifying the enzymatic activity will be reflected by a variation in the optical density at 490 nm. The to ratio of the rates of formation of dopachrome makes it possible to determine precisely the activations or inhibitions obtained with the various test molecules.
The sample to be tested is incubated in the presence of fungal tyrosinase (Sigma), for 5 minutes with stirring. L-Dopa (Sigma), a tyrosinase substrate, is incubated for 10 minutes in the absence of light, in the presence or absence of the test molecules. The calculation of the percentage of inhibition is performed by relating the test OD to the OD of the negative control without molecule.
In the context of this in vitro test, the p-coumaric acid derivatives were tested at final concentrations of 10^−4M and 10^−5M.

[4] = 10^−4M, 24 hours, read-out: Inhibition of human tyrosinase after application to normal human melanocytes, percentage of inhibition, Mean 10^−4M
[5] = 10^−5M, 24 hours, read-out: Inhibition of human tyrosinase after application to normal human melanocytes, percentage of inhibition, Mean 10^−5M
[6] = Donor 1, fair phototype, 10^−4 M, read-out: Inhibition of tyrosinase, Mean 10^−4 M, Donor 1
[7] = Donor 1, fair phototype, 10^−5 M, read-out: Inhibition of tyrosinase, Mean 10^−5 M, Donor 1
[8] = Donor 2, fair phototype, 10^−4 M, read-out: Inhibition of tyrosinase, Mean 10^−4 M, Donor 2
[9] = Donor 2, fair phototype, 10^−5 M, read-out: Inhibition of tyrosinase, Mean 10^−5 M, Donor 2
[10] = Donor 3, fair phototype, 10^−4 M, read-out: Inhibition of tyrosinase, Mean 10^−4 M, Donor 3
[11] = Donor 3, fair phototype, 10^−5 M, read-out: Inhibition of tyrosinase, Mean 10^−5 M, Donor 3
[12] = Donor S, fair phototype, 10^−4 M, read-out: Inhibition of tyrosinase, Mean 10^−4 M, Donor S
[13] = Donor S, fair phototype, 10^−5 M, read-out: Inhibition of tyrosinase, Mean 10^−5 M, Donor S

Structure (SMILES)	inhibition at 100 µM (Human tyrosinase [1])	inhibition at 10 µM (Human tyrosinase [1])	inhibition at 100 µM (Human tyrosinase [2]; [4])	inhibition at 10 µM (Human tyrosinase [2]; [5])	inhibition at 100 µM (Human tyrosinase [2]; [6])	inhibition at 10 µM (Human tyrosinase [2]; [7])	inhibition at 100 µM (Human tyrosinase [2]; [8])	inhibition at 10 µM (Human tyrosinase [2]; [9])	inhibition at 100 µM (Human tyrosinase [2]; [10])	inhibition at 10 µM (Human tyrosinase [2]; [11])	inhibition at 100 µM (Human tyrosinase [2]; [12])	inhibition at 10 µM (Human tyrosinase [2]; [13])	Inhibition of fungal tyrosinase, percentage of inhibition, Mean 10^−4M (fungal tyrosinase)	Inhibition of fungal tyrosinase, percentage of inhibition, Mean 10^−5M (fungal tyrosinase)	Percentages of viability, Mean 10^−4 M (normal human melanocytes)	Percentages of viability, Mean 10^−5 M (normal human melanocytes)	Antiradical activity, Mean 10^−5 M [3]	also measured
COc1cc(/C=C/C(=O)NCc2ccc(O)c(OC)c2)ccc1O [Example 4, N-trans-feruloyl-4-hydroxy-3-methoxyphenylmethylamine]	6.42%	4.92%	39.8%	15.8%									1.35%	0%	101.94%	99.55%	15.72%	
O=C(/C=C/c1ccc(O)c(O)c1)NCCc1ccc(O)cc1 [Example 9, N-trans-caffeoyltyramine]	22.1%	11.9%	100%	24.6%	65.3%	0%	61.5%	0%	70.7%	22.2%	100%	24.6%	27.42%	13.06%	77.9%	94.96%	41.17%	inhibition at 1000 µM (Human tyrosinase [2]; B103, Donor B, brown phototype, read-out: Inhibition of tyrosinase, Mean Donor B, 10^−3 M): 94.5%; inhibition at 100 µM (Human tyrosinase [2]; B104, Donor B, brown phototype, 10^−4 M, read-out: Inhibition of tyrosinase, Mean Donor B, 10^−4 M): 44.4%; inhibition at 1000 µM (Human tyrosinase [2]; Donor A, brown phototype, read-out: Inhibition of tyrosinase, Mean Donor A, 10^−3 M): 98.9%; inhibition at 100 µM (Human tyrosinase [2]; Donor A, brown phototype, 10^−4 M, read-out: Inhibition of tyrosinase, Mean Donor A, 10^−4 M): 44.6%; inhibition at 10 µM (Human tyrosinase [2]; Donor A, brown phototype, 10^−5 M, read-out: Inhibition of tyrosinase, Mean Donor A, 10^−5 M): 21.3%; inhibition at 10 µM (Human tyrosinase [2]; Donor B, brown phototype, 10^−5 M, read-out: Inhibition of tyrosinase, Mean Donor B, 10^−5 M): 18.9%; inhibition at 100 µM (Human tyrosinase [2]; donor of black phototype, 10^−4 M, read-out: Inhibition, Mean Negroid skin, 10^−4 M): 49.3%; inhibition at 10 µM (Human tyrosinase [2]; donor of black phototype, 10^−5 M, read-out: Inhibition, Mean Negroid skin, 10^−5 M): 16%
COc1cc(/C=C/C(=O)NCCc2ccc(OC)c(OC)c2)ccc1O [Example 2, N-trans-feruloyl-3,4-dimethoxydopamine]	0.94%	0%	24.6%	18.5%									0%		114.29%	114.6%	20.16%	

The next lines start with results.

inhibition at 100 µM (Human tyrosinase [1])	inhibition at 10 µM (Human tyrosinase [1])	inhibition at 100 µM (Human tyrosinase [2]; [4])	inhibition at 10 µM (Human tyrosinase [2]; [5])	inhibition at 100 µM (Human tyrosinase [2]; [6])	inhibition at 10 µM (Human tyrosinase [2]; [7])	inhibition at 100 µM (Human tyrosinase [2]; [8])	inhibition at 10 µM (Human tyrosinase [2]; [9])	inhibition at 100 µM (Human tyrosinase [2]; [10])	inhibition at 10 µM (Human tyrosinase [2]; [11])	inhibition at 100 µM (Human tyrosinase [2]; [12])	inhibition at 10 µM (Human tyrosinase [2]; [13])	Inhibition of fungal tyrosinase, percentage of inhibition, Mean 10^−4M (fungal tyrosinase)	Inhibition of fungal tyrosinase, percentage of inhibition, Mean 10^−5M (fungal tyrosinase)	Structure (SMILES)	Percentages of viability, Mean 10^−4 M (normal human melanocytes)	Percentages of viability, Mean 10^−5 M (normal human melanocytes)	Antiradical activity, Mean 10^−5 M [3]	also measured
9.91%	11.4%	66.8%	0%	44.6%	0%	0%	0.15%	14.4%	3.32%	66.8%	0%	16.23%	14.72%	O=C(/C=C/c1ccc(O)c(O)c1)NCCc1ccc(O)c(O)c1 [Example 10, N-trans-caffeoyldopamine]	84.62%	102.1%	57.45%	
0%	8.68%		28%									12.03%	3.7%	COc1cc(CNC(=O)/C=C/c2ccc(O)c(O)c2)ccc1O [Example 11, N-trans-caffeoyl-4-hydroxy-3-methoxyphenylmethylamine]		116.99%	59.2%	
